In patent US9320276B2, “N-hetarylmethyl pyrazolylcarboxamides” (BAYER INTELLECTUAL PROPERTY GMBH, priority 2010, dated 2016):

Experiment: logP by HPLC on reversed-phase column (EEC Directive 79/831 Annex V.A8)
Type: physicochemical
Conditions: HPLC on reversed-phase column (C 18), 40° C., 0.1% aqueous formic acid and acetonitrile, linear gradient 10% to 90% acetonitrile
Experimental: In table 1, the logP values were determined in accordance with EEC Directive 79/831 Annex V.A8 by HPLC (High Performance Liquid Chromatography) on a reversed-phase column (C 18), using the method described below: Temperature: 40° C.; Mobile phases: 0.1% aqueous formic acid and acetonitrile; linear gradient from 10% acetonitrile to 90% acetonitrile. Calibration was carried out using unbranched alkan-2-ones (comprising 3 to 16 carbon atoms) with known logP values (determination of the logP values by the retention times using linear interpolation between two successive alkanones). lambda-max-values were determined using UV-spectra from 200 nm to 400 nm and the peak values of the chromatographic signals.

logP	Structure (SMILES)
3.04	CN(Cc1cc(-c2ccc(Cl)cc2)no1)C(=O)c1c(C(F)F)nn(C)c1F [Example 152]
2.90	Cc1nc(-c2ccccc2)sc1CN(C)C(=O)c1c(C(F)F)nn(C)c1Cl [Example 148]
3.94	Cc1cc(CN(C(=O)c2c(C(F)F)nn(C)c2Cl)C2CC2)c(C)n1-c1ccccc1 [Example 146]
1.82	Cn1nc(C(F)F)c(C(=O)NCc2ccc(Cl)nc2)c1Cl [Example 69]
3.25	CC(C)N(Cc1cnn(-c2ccc(Cl)cc2)c1)C(=O)c1c(C(F)F)nn(C)c1F [Example 150]
2.70	CN(Cc1cscc1Br)C(=O)c1c(C(F)F)nn(C)c1Cl [Example 134]
3.70	Cn1nc(C(F)F)c(C(=O)NC2(c3cc4ccccc4o3)CCCC2)c1Cl [Example 74]
2.94	Cn1nc(C(F)F)c(C(=O)N(Cc2ccc(Cl)nc2)C2CCCC2)c1Cl [Example 68]
2.71	CN(Cc1nc(-c2ccccc2)no1)C(=O)c1c(C(F)F)nn(C)c1Cl [Example 113]
2.75	Cn1nc(C(F)F)c(C(=O)NCc2cc3ccccc3s2)c1F [Example 84]
2.39	Cn1nc(C(F)F)c(C(=O)N(Cc2ccc(Cl)nc2)C2CC2)c1Cl [Example 66]
1.72	CCN(Cc1c(C)nn(CC)c1C)C(=O)c1c(C(F)F)nn(C)c1F [Example 79]
2.90	Cn1nc(C(F)F)c(C(=O)N(Cc2cnc(Cl)cc2Cl)C2CC2)c1Cl [Example 119]
2.33	CC(C)N(Cc1ccc(Cl)nc1)C(=O)c1c(C(F)F)nn(C)c1F [Example 65]
3.59	CSc1ncc(C(C(C)C)N(C)C(=O)c2c(C(F)F)nn(C)c2Cl)c(C(F)(F)F)n1 (stereo not drawn) [Example 158]
2.49	CC(C)N(Cc1ccc(Cl)nc1)C(=O)c1c(C(F)F)nn(C)c1Cl [Example 64]
2.80	Cn1nc(C(F)F)c(C(=O)N(Cc2nc3ccccc3s2)C2CC2)c1Cl [Example 97]
2.35	CCN(Cc1cnc(Cl)s1)C(=O)c1c(C(F)F)nn(C)c1Cl [Example 77]
3.29	Cn1nc(C(F)F)c(C(=O)N(Cc2sccc2Br)C2CC2)c1Cl [Example 136]
3.11	Cn1nc(C(F)F)c(C(=O)N(Cc2sccc2Br)C2CC2)c1F [Example 135]
2.59	CC(C)Oc1ccc(CN(C)C(=O)c2c(C(F)F)nn(C)c2Cl)cn1 [Example 101]
2.32	CN(Cc1ccc2nsnc2c1)C(=O)c1c(C(F)F)nn(C)c1Cl [Example 99]
2.59	Cc1onc(-c2ccccc2)c1CN(C)C(=O)c1c(C(F)F)nn(C)c1Cl [Example 129]
1.84	CN(Cc1ccc(Cl)nc1)C(=O)c1c(C(F)F)nn(C)c1F [Example 63]
2.21	CCN(Cc1cnc(Cl)s1)C(=O)c1c(C(F)F)nn(C)c1F [Example 76]
2.90	Cn1nc(C(F)F)c(C(=O)NCc2csc3ccccc23)c1Cl [Example 87]
2.44	Cc1onc(-c2ccccc2)c1CN(C)C(=O)c1c(C(F)F)nn(C)c1F [Example 130]

More lines, now with the values behind:

Structure (SMILES)	logP
Cn1nc(C(F)F)c(C(=O)N(Cc2cccnc2)CC(F)(F)F)c1Cl [Example 13]	1.37
COCCN(Cc1ccc(Cl)nc1)C(=O)c1c(C(F)F)nn(C)c1F [Example 59]	2.02
Cc1ccoc1CN(C)C(=O)c1c(C(F)F)nn(C)c1F [Example 22]	2.18
CN(Cc1ccnc(Cl)c1)C(=O)c1c(C(F)F)nn(C)c1Cl [Example 53]	1.91
Cn1nc(C(F)F)c(C(=O)NCc2ccco2)c1Cl [Example 9]	1.86
Cn1nc(C(F)F)c(C(=O)N(Cc2ccc(Cl)nc2)C2CCCC2)c1F [Example 57]	2.80
Cn1ccc(C2(NC(=O)c3c(C(F)F)nn(C)c3Cl)CCCC2)n1 [Example 25]	1.93
CCCN(Cc1cccs1)C(=O)c1c(C(F)F)nn(C)c1F [Example 30]	2.77
C=CCN(Cc1csc(C)n1)C(=O)c1c(C(F)F)nn(C)c1F [Example 44]	2.07
CN(Cc1cccnc1Cl)C(=O)c1c(C(F)F)nn(C)c1Cl [Example 51]	1.87
Cn1nc(C(F)F)c(C(=O)NC2(c3ccco3)CCCC2)c1Cl [Example 11]	2.86
Cn1nc(C(F)F)c(C(=O)N(Cc2ccco2)C2CCCCC2)c1Cl [Example 7]	3.35
Cc1occc1C1(NC(=O)c2c(C(F)F)nn(C)c2F)CCCC1 [Example 24]	2.92
Cn1nc(C(F)F)c(C(=O)N(Cc2ccco2)C2CC2)c1Cl [Example 4]	2.45
Cc1cc(C(C)N(C(=O)c2c(C(F)F)nn(C)c2Cl)C2CC2)c(C)o1 (stereo not drawn) [Example 36]	3.37
CC(C)C(c1cncnc1)N(C)C(=O)c1c(C(F)F)nn(C)c1Cl (stereo not drawn) [Example 19]	1.76
Cn1nc(C(F)F)c(C(=O)NC2(c3cccs3)CCCC2)c1Cl [Example 33]	3.13
Cn1nc(C(F)F)c(C(=O)NCc2ccco2)c1F [Example 10]	1.66
Cn1ccc(C2(NC(=O)c3c(C(F)F)nn(C)c3F)CCCC2)n1 [Example 26]	2.25
CCn1cc(CNC(=O)c2c(C(F)F)nn(C)c2F)c(C)n1 [Example 47]	1.31

Structure (SMILES)	logP
Cn1nc(C(F)F)c(C(=O)N(Cc2ccco2)C2CCCCC2)c1F [Example 8]	3.21
CC(C1CC1)N(Cc1ccco1)C(=O)c1c(C(F)F)nn(C)c1Cl (stereo not drawn) [Example 2]	2.98
CCN(Cc1nonc1C)C(=O)c1c(C(F)F)nn(C)c1Cl [Example 27]	2.20
Cn1nc(C(F)F)c(C(=O)N(Cc2cccnc2)CC(F)(F)F)c1F [Example 14]	1.20
Cn1nc(C(F)F)c(C(=O)NC2(c3ccco3)CCCC2)c1F [Example 12]	2.70
CCN(Cc1ccc(Cl)nc1)C(=O)c1c(C(F)F)nn(C)c1F [Example 61]	2.10
Cc1ccsc1CN(C(=O)c1c(C(F)F)nn(C)c1F)C1CCCC1 [Example 38]	3.46
Cc1ccsc1CN(C)C(=O)c1c(C(F)F)nn(C)c1Cl [Example 41]	2.58
CC(C1CC1)N(Cc1ccco1)C(=O)c1c(C(F)F)nn(C)c1F (stereo not drawn) [Example 3]	2.82
Cn1nc(C(F)F)c(C(=O)N(Cc2cccnc2)C2CCCCCC2)c1F [Example 16]	1.66
CCN(Cc1ccc(Cl)nc1)C(=O)c1c(C(F)F)nn(C)c1Cl [Example 60]	2.23
CN(Cc1cncc(Cl)c1)C(=O)c1c(C(F)F)nn(C)c1F [Example 56]	1.76
CCN(Cc1cn(CC)nc1C)C(=O)c1c(C(F)F)nn(C)c1F [Example 45]	1.69
Cn1nc(C(F)F)c(C(=O)NC2(c3cccnc3)CCCC2)c1F [Example 18]	0.84
C=CCN(Cc1csc(C)n1)C(=O)c1c(C(F)F)nn(C)c1Cl [Example 43]	2.20
COCCN(Cc1ccc(Cl)nc1)C(=O)c1c(C(F)F)nn(C)c1Cl [Example 58]	2.15
CN(Cc1cccnc1Cl)C(=O)c1c(C(F)F)nn(C)c1F [Example 52]	1.72
CN(Cc1ccco1)C(=O)c1c(C(F)F)nn(C)c1Cl [Example 6]	2.02
Cn1nc(C(F)F)c(C(=O)NC2(c3cccnc3)CCCC2)c1Cl [Example 17]	0.96
